Assay results reported in publication PMC7526550, “Allosteric folding correction of F508del and rare CFTR mutants by elexacaftor-tezacaftor-ivacaftor (Trikafta) combination” (JCI Insight, 2020).

How the values were obtained:
CFTR (F508del-NBD1-1S) = CFTR (F508del-NBD1-1S) (Homo sapiens, UniProt P13569, F494N/DEL508-508); design: SPR (Biacore T200) steady-state affinity of correctors to immobilized biotinylated CFTR NBD1; settings: binder; read-out: ΔF508-NBD1-1S Mean KD
Procedure: (§1) As described in our previous publication ([21]), binding interactions between biotinylated NBD1 constructs (WT-1S-, F508del-1S-, F508del-3S-NBD1; ~30 kDa each) and corrector compounds were examined with a BIACORE T200 system (GE Healthcare Bio-Sciences AB; Control software v2.0 and Evaluation software v1.0). Briefly, neutravidin (2 mg/mL in water, diluted to 50 μg/mL in 10 mM sodium acetate, pH 5.0; Thermo Fisher Scientific) was amine-coupled to S-series CM5 sensors (~12,000 RU per flow cell) at 25°C using filtered (0.2 μm) and degassed HBS-EP buffer (10 mM HEPES, pH 7.4; 150 mM NaCl; 3 mM EDTA; 0.005% [v/v] Tween-20). After subsequent cooling to 4°C (sample chamber and sensor) and equilibration in PBS running buffer (1× PBS pH 7.4 containing 10% [v/v] glycerol, 2 mM MgCl2, 1 mM ATP, 0.05% [v/v] Tween-20), reference (neutravidin only) and active surfaces (100 μg/mL NBD1 constructs in PBS buffer; capture 5000–8000 RU each) were equilibrated in PBS buffer containing 2% (v/v) DMSO at 10 μL/min. The corrector compounds were titrated over reference and NBD1-immobilized surfaces at 25–50 μL/min (1–2 minutes association plus 2–5 minutes dissociation; 2-fold dilution series for all compounds). Between titration series, the surfaces were regenerated at 50 μL/min using two 30-second pulses of solution I (PBS-DMSO buffer containing 1.0 M NaCl and 0.05% [v/v] Empigen [Anatrace]). […]

CFTR (WT-NBD1-1S) = CFTR (WT-NBD1-1S) (Homo sapiens, UniProt P13569, F494N); assay: biochemical; design: SPR (Biacore T200) steady-state affinity of correctors to immobilized biotinylated CFTR NBD1
Chain of CFTR (WT-NBD1-1S) (P13569 389-678 F494N limits assumed): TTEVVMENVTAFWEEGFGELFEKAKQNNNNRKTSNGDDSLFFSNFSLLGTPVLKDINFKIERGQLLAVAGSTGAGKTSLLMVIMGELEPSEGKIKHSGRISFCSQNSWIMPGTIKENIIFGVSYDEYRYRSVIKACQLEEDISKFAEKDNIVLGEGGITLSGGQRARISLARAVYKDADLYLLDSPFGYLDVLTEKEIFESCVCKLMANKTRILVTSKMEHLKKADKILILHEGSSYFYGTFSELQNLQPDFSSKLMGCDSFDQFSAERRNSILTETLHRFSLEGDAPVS
Procedure: as §1

Chain of CFTR (F508del-NBD1-1S) (P13569 with tags, fused parts or gaps F494N/DEL508-508 limits assumed): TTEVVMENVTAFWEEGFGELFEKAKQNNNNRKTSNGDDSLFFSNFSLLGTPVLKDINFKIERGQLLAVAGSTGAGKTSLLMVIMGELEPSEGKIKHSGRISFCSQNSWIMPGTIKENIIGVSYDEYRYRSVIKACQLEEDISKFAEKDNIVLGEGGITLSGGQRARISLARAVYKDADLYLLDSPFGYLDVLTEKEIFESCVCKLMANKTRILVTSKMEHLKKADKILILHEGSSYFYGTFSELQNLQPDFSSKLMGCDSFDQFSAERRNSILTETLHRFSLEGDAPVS

Kd (CFTR (F508del-NBD1-1S)) [µM]	Kd (CFTR (WT-NBD1-1S)) [µM]	SMILES
82	76	Cc1nn(C)cc1S(=O)(=O)NC(=O)c1ccc(-n2ccc(OCC(C)(C)C(F)(F)F)n2)nc1N1C[C@@H](C)CC1(C)C [compound 20, VX-445]
> 200	> 200	CC(C)(CO)c1cc2cc(NC(=O)C3(c4ccc5c(c4)OC(F)(F)O5)CC3)c(F)cc2n1C[C@@H](O)CO [VX-661, tezacaftor]
